Tests used:
TDO [1] = molecular target: T1, TDO (Homo sapiens, UniProt P48775); test: A172 kynurenine cell-based assay; parameters: This assay utilised cancer cells which expressed either TDO or IDO; endogenous in cells; host or cells: A172 (human glioblastoma); conditions: A172 human glioblastoma cells, 48 hours, read-out: A172 Kynurenine cell based assay pIC50 (converted)
How it was run: (§1)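 Cellular kynurenine production, TDO via A172 glioblastoma and IDO via IFN-γ-stimulated SKOV3 ovarian adenocarcinoma cells, was quantified after 48 hours' compound treatment in 500 μM L-tryptophan medium, using Erhlich's reagent and absorbance at 490 nm.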

IDO [2] = molecular target: T2, IDO (Homo sapiens, UniProt P14902); test: hIDO biochemical coupled assay; conditions: 45 μM L-tryptophan, read-out: hIDO biochemical assay pIC50 (converted)
T2 sequence (P14902 whole entry): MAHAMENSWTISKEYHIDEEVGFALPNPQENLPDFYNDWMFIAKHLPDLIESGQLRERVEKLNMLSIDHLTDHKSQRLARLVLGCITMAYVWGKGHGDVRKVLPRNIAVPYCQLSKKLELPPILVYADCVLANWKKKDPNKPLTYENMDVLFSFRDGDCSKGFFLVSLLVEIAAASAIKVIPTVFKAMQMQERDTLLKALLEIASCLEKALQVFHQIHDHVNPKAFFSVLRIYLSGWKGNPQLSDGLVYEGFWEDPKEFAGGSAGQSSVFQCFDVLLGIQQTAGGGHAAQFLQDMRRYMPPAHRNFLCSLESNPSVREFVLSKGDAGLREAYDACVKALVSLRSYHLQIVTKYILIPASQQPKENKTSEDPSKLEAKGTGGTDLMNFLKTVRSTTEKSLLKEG

TDO [3] = molecular target: T1, TDO; test: hTDO biochemical coupled assay; conditions: 330 μM L-tryptophan; for IC50: read-out: hTDO biochemical assay pIC50 (converted)
IDO [4] = molecular target: T2, IDO; test: SKOV3 kynurenine cell-based assay (IDO induced by IFN-γ); parameters: IDO expression was induced in the SKOV3 cells by the addition of 500 ng/ml IFN-γ; endogenous in cells; host or cells: SKOV3 (human ovarian adenocarcinoma), induced with IFN-γ; conditions: 48 hours, read-out: SKOV3 Kynurenine cell based assay pIC50 (converted)
How it was run: as §1

[5] = SKOV3 human ovarian adenocarcinoma cells, 500 ng/ml IFN-γ, 500 μM L-tryptophan
[6] = SKOV3 cells, IDO induced by 500 ng/ml IFN-γ

T1 sequence (P48775 whole entry): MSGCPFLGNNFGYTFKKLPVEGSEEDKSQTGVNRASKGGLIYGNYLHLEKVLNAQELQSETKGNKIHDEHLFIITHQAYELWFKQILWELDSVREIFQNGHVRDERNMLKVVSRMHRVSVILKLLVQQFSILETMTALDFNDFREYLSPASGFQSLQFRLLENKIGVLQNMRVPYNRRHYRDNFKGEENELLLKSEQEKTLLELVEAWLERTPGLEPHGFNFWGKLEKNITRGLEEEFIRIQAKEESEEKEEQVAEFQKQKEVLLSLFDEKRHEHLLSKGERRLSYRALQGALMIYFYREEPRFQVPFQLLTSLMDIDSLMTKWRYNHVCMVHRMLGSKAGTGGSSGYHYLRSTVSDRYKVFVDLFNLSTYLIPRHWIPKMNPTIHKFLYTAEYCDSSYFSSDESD

IC50 (TDO [1]; 500 μM L-tryptophan) [µM]	IC50 (IDO [2]; 17 minutes, room temperature) [µM]	IC50 (TDO [3]; 17 minutes, room temperature) [µM]	IC50 (IDO [4]; [5]) [µM]	IC50 (TDO [1]) [µM]	IC50 (IDO [2]) [µM]	hTDO biochemical assay pIC50 (TDO [3])	IC50 (IDO [4]; [6]) [µM]	IC50 (TDO [3]) [µM]	Compound
3.24 to 31.6	> 100	> 100	32.4 to 100						CS(=O)(=O)N1CCN(c2cc(Cl)cc3[nH]ncc23)C2CCCCC21 (racemic) [Compound 341]
32.4 to 100	> 100	> 100	32.4 to 100						CS(=O)(=O)N1CCN(c2cc(Cl)cc3[nH]ncc23)C2CCCCC21 (single isomer, unassigned) [Compound 385]
3.24 to 31.6		3.24 to 31.6	3.24 to 31.6						CS(=O)(=O)N1CCN(c2cc(Cl)cc3[nH]ncc23)C2CCCCC21 (single isomer, unassigned) [Compound 386]
3.24 to 31.6	> 100	3.24 to 31.6	> 100						CS(=O)(=O)N1CCN(c2cc(C(F)(F)F)cc3[nH]ncc23)C2CCCCC21 (single isomer, unassigned) [Compound 415]
	> 100	32.4 to 100							O=S(=O)(Nc1cccc2[nH]ncc12)c1ccccc1 [Compound 2]
	> 100	3.24 to 31.6							Cc1noc(C)c1S(=O)(=O)Nc1cccc2[nH]ncc12 [Compound 3]
32.4 to 100	> 100	< 3.16	> 100						CC(C)(C)CC(=O)Nc1cccc2[nH]ncc12 [Compound 4, N-(1H-indazol-4-yl)-3,3-dimethylbutanamide]
	> 100	32.4 to 100							O=C(Nc1cccc2[nH]ncc12)C1CCOCC1 [Compound 5]
	> 100	32.4 to 100							CN(C)S(=O)(=O)Nc1cccc2[nH]ncc12 [Compound 7]
	> 100	3.24 to 31.6							CC(C)CS(=O)(=O)Nc1cccc2[nH]ncc12 [Compound 8]
	> 100	32.4 to 100							O=C(Nc1cccc2[nH]ncc12)c1ccccc1 [Compound 9]
3.24 to 31.6	> 100	3.24 to 31.6	32.4 to 100						CS(=O)(=O)N1CCN(c2cccc3[nH]ncc23)CC1 [Compound 10]
3.24 to 31.6	> 100	32.4 to 100	32.4 to 100						CC(=O)N1CCN(c2cccc3[nH]ncc23)CC1 [Compound 11]
3.24 to 31.6	> 100	3.24 to 31.6	> 100						CS(=O)(=O)N1CCC(c2cccc3[nH]ncc23)CC1 [Compound 12]
3.24 to 31.6	> 100	32.4 to 100	32.4 to 100						CC(=O)N1CCC(c2cccc3[nH]ncc23)CC1 [Compound 14]
3.24 to 31.6	> 100	32.4 to 100	32.4 to 100						O=S(=O)(c1ccccc1)N1CCN(c2cccc3[nH]ncc23)CC1 [Compound 15]
3.24 to 31.6	> 100	3.24 to 31.6	32.4 to 100						O=S(=O)(C1CCCC1)N1CCN(c2cccc3[nH]ncc23)CC1 [Compound 17]
3.24 to 31.6	> 100	3.24 to 31.6	32.4 to 100						O=S(=O)(C1CC1)N1CCN(c2cccc3[nH]ncc23)CC1 [Compound 19]
3.24 to 31.6	> 100	3.24 to 31.6	32.4 to 100						CN(C)S(=O)(=O)N1CCN(c2cccc3[nH]ncc23)CC1 [Compound 21]
3.24 to 31.6	> 100	3.24 to 31.6	32.4 to 100						CC(C)S(=O)(=O)N1CCN(c2cccc3[nH]ncc23)CC1 [Compound 22]
< 3.16	32.4 to 100	< 3.16	3.24 to 31.6						CC(=O)N1CCN(c2cccc3[nH]ncc23)CC1(C)C [Compound 25]
< 3.16	3.24 to 31.6	< 3.16	3.24 to 31.6						CC1(C)CN(c2cccc3[nH]ncc23)CCN1S(C)(=O)=O [Compound 26]
< 3.16	3.24 to 31.6	< 3.16	3.24 to 31.6	0.339	22.4	6.34	10.5		CS(=O)(=O)N1CCN(c2cc(Cl)cc3[nH]ncc23)CC1 [Compound 28, 6-chloro-4-(4-(methylsulfonyl)piperazin-1-yl)-1H-indazole]

IC50 (TDO [1]; 500 μM L-tryptophan) [µM]	IC50 (IDO [2]; 17 minutes, room temperature) [µM]	IC50 (TDO [3]; 17 minutes, room temperature) [µM]	IC50 (IDO [4]; [5]) [µM]	IC50 (TDO [1]) [µM]	IC50 (IDO [2]) [µM]	hTDO biochemical assay pIC50 (TDO [3])	IC50 (IDO [4]; [6]) [µM]	IC50 (TDO [3]) [µM]	Compound
< 3.16	< 3.16	< 3.16	3.24 to 31.6						Cc1cc(C2CCN(S(C)(=O)=O)CC2)c2cn[nH]c2c1 [Compound 30]
32.4 to 100	> 100	3.24 to 31.6	32.4 to 100						c1ccc(CNc2cccc3[nH]ncc23)cc1 [Compound 34]
	> 100	3.24 to 31.6							CS(=O)(=O)NCCOc1cccc2[nH]ncc12 [Compound 35]
3.24 to 31.6	> 100	< 3.16	> 100						c1ccc(Nc2cccc3[nH]ncc23)cc1 [Compound 36]
	32.4 to 100	32.4 to 100							Cn1ncc2cccc(N3CCN(S(C)(=O)=O)CC3)c21 [Compound 37]
	32.4 to 100	32.4 to 100							CC(=O)N1CCN(c2cccc3cnn(C)c23)CC1 [Compound 38]
< 3.16	< 3.16	< 3.16	3.24 to 31.6	0.0832	2.34		8.32	0.302	CS(=O)(=O)N1CCC(c2cc(Cl)cc3[nH]ncc23)CC1 [Compound 40, 6-chloro-4-(1-(methylsulfonyl)piperidin-4-yl)-1H-indazole]
3.24 to 31.6	> 100	32.4 to 100	> 100						CC(=O)N1CCN(c2ccc3[nH]ncc3c2)CC1 [Compound 41]
	> 100	< 3.16							CS(=O)(=O)N1CCN(c2cc(F)cc3[nH]ncc23)CC1 [Compound 44]
< 3.16	< 3.16	< 3.16	< 3.16	0.01	0.447		0.372	0.263	CC1(C)CN(c2cc(Cl)cc3[nH]ncc23)CCN1S(C)(=O)=O [Compound 45, 6-chloro-4-(3,3-dimethyl-4-(methylsulfonyl)piperazin-1-yl)-1H-indazole]
< 3.16	3.24 to 31.6	< 3.16	< 3.16						CC1(C)CN(c2cc(C(F)(F)F)cc3[nH]ncc23)CCN1S(C)(=O)=O [Compound 78]
< 3.16	< 3.16	< 3.16	< 3.16						CC1(C)CN(c2cc(Br)cc3[nH]ncc23)CCN1S(C)(=O)=O [Compound 91]
< 3.16	3.24 to 31.6	< 3.16	32.4 to 100						CS(=O)(=O)NC1CCN(c2cc(Cl)cc3[nH]ncc23)CC1 [Compound 97]
< 3.16	< 3.16	< 3.16	< 3.16						O=C1NC(=O)C2(CCN(c3cc(Cl)cc4[nH]ncc34)CC2)N1 [Compound 137]
< 3.16	3.24 to 31.6	< 3.16	3.24 to 31.6						Clc1cc(N2CCC(c3ccccc3)CC2)c2cn[nH]c2c1 [Compound 183]
< 3.16	3.24 to 31.6	< 3.16	3.24 to 31.6	0.0245	15.5		5.62	0.129	CS(=O)(=O)c1ccc(-c2cc(Cl)cc3[nH]ncc23)cc1 [Compound 192, 6-chloro-4-(4-(methylsulfonyl)phenyl)-1H-indazole]
< 3.16	3.24 to 31.6	< 3.16	3.24 to 31.6						CC(=O)NC1CCN(c2cc(Cl)cc3[nH]ncc23)C1 (stereo not drawn) [Compound 198]
< 3.16	> 100	< 3.16	32.4 to 100						NC(=O)C1CCCN(c2cc(Cl)cc3[nH]ncc23)C1 (stereo not drawn) [Compound 199]
< 3.16	3.24 to 31.6	< 3.16	3.24 to 31.6						OC1(c2ccccc2)CCN(c2cc(Cl)cc3[nH]ncc23)CC1 [Compound 207]
32.4 to 100	> 100	32.4 to 100	32.4 to 100						CN(C)C(=O)C1CCCN(c2cc(Cl)cc3[nH]ncc23)C1 (stereo not drawn) [Compound 209]
3.24 to 31.6	> 100	3.24 to 31.6	32.4 to 100						CNC(=O)C1CCCN(c2cc(Cl)cc3[nH]ncc23)C1 (stereo not drawn) [Compound 210]
3.24 to 31.6	> 100		3.24 to 31.6						COc1cc(-c2cc(Cl)cc3[nH]ncc23)ccc1S(C)(=O)=O [Compound 296]
< 3.16	< 3.16	< 3.16							O=C1NC2(CCN(c3cc(Cl)cc4[nH]ncc34)CC2)C(=O)N1c1ccccc1 [Compound 456]

From patent publication US10590086B2, “Pharmaceutical compound” (IOmet Pharma Ltd., priority 2014, dated 2020)
